Measured values: a melting point compilation (Tetko et al.; mined from patent text by program, amines drawn as free bases though some values may be those of a salt)

Row | Structure (SMILES) | melting point [°C]
1 | CCNC(=O)Cn1c(=O)c(=O)[nH]c2cc([N+](=O)[O-])c(-n3cccc3)cc21 | > 300
2 | CCOC(=O)Cn1c(=O)c(C#N)c(N2CCN(C(=O)c3cccs3)CC2)c2cccnc21 | 236
3 | CCOC(=O)C1=C(C)NC(c2csc(C)n2)=NC1c1cccc(O)c1 (stereo not drawn) | 175 to 178
4 | C[C@H]1CC[C@H]2C(C)(C)[C@@H](O)CC[C@]23Oc2c(c(OCc4ccccc4)cc4c2CN(C(=O)OC(C)(C)C)C4=O)C[C@]13C | 138 to 140
5 | COc1cc2c(cc1O)CCN(Cc1cccc(OC)c1OC)C2 | 101 to 102
6 | CCOC(=O)c1cn(-c2cc(OC)c(F)cc2F)c2c(C)c(N)c(F)cc2c1=O | 232 to 235
7 | CC1C=NNc2c(-c3ccc(F)cc3)c(-c3ccncc3)nn21 (stereo not drawn) | 204
8 | COc1ccc(C(=O)Nc2ccc(C(=O)O)cc2)cc1C12CC3CC(CC(C3)C1)C2 | 286 to 287
9 | CCOc1nc(-c2ccco2)c2ncn(Cc3ccc(OC)cc3)c2n1 | 137 to 138
10 | CCOc1cc2c(cc1OCC)[C@@H]1CCCC[C@@H]1N=C2c1ccc(Cl)nc1 (racemic) | 123 to 126
11 | COc1ccc([C@H](O)[C@@H](Cc2ccc(C(F)(F)F)cc2)NC(=O)c2ccc(F)c3ccccc23)cc1 (racemic) | 184 to 185
12 | Nc1ccccc1N1CCN(CC(O)COc2cccc3c2CCCC3)CC1 (stereo not drawn) | 103 to 104
13 | CN(C)CCCN=C1CC(c2ccc(C(F)(F)F)cc2)Cc2[nH]c3ccc(Cl)cc3c(=O)c21 (stereo not drawn) | 211 to 213
14 | CCc1noc(-c2cn(-c3cccc(Oc4ccccc4)c3)cn2)n1 | 108 to 109
15 | CNC(=O)N(N=Cc1ccccc1)c1nnc(C(C)(C)C)s1 | 115 to 116
16 | Nc1ncc2c(=O)c(C(=O)ON3C(=O)CCC3=O)c[nH]c2n1 | > 300
17 | CC(C)(C)c1cc(CNc2cccc(Br)c2CO)c(C(=O)O)s1 | 68 to 69
18 | COC(=O)C1=C(C)NC(C)C(C(=O)OC)=C1c1cc(Cl)ccc1COCc1ccccc1 (stereo not drawn) | 156 to 158
19 | CCOC(=O)CN(Cc1cc(F)ccc1F)S(=O)(=O)c1ccc(N2CCC(NC[C@H](O)c3ccc(O)c(NS(C)(=O)=O)c3)CC2)cc1 | 85 to 90
20 | Cc1sc(C(=O)O)cc1CC#N | 196 to 198
21 | CC1CCC(C(C)C)C(OC(=O)[C@@H](c2ccc(OCc3ccc4ccccc4n3)cc2)C2CCCCCC2)C1 (stereo partly drawn) | 127
22 | CCCCCCCCCCCCCCCCSCC(CNS(=O)(=O)CCCI)NC(C)=O (stereo not drawn) | 75 to 76
23 | NC(=O)c1ccc(C(=O)Nc2ccc(-n3nc(C(F)(F)F)cc3C(F)(F)F)cc2)cc1 | 290 to 291
24 | C#CCOc1noc2c1CN(C(=O)OC(C)(C)C)CC2 | 107 to 108
25 | CCOC(=O)CC[C@H](NC(=O)c1ccc(Br)cc1)C(=O)OCC | 82.5 to 83.5

Row | Structure (SMILES) | melting point [°C]
26 | COc1ccc(-c2nsc(SN)n2)cc1 | 136 to 139
27 | N#Cc1cccc(N=C(NCC(=O)O)NCC2CCCCC2)c1 | 80 to 83
28 | O=S(=O)(Cc1c(C(F)(F)F)nn(-c2ccccc2)c1O)c1ccccc1 | 122 to 123
29 | CC(C)Cc1c[nH]c(-c2ccnc(NC(=O)c3ccccc3)c2)n1 | 103 to 105
30 | CCOC(=O)C(N)=Cc1ccc(OCC(O)CNC(C)(C)C)cc1 (stereo not drawn) | 99 to 100
31 | COC(=O)C(C)(C)Cc1c(SC(C)(C)C)c2cc(OC)ccc2n1Cc1ccc(Cl)cc1 | 102 to 103
32 | COc1ccc(-c2nnc3c4ccccc4c(Nc4ccc(NC(=O)c5ccc(N6CCOCC6)cc5)cc4)nn23)cc1 | 313
33 | COc1ccc(CCc2nc(C(F)(F)F)c[nH]2)cc1 | 146 to 148
34 | Fc1ccc(CN2CCCC(Nc3nccc(-c4c(-c5ccc(F)cc5)nc5sccn45)n3)C2)cc1 (stereo not drawn) | 131 to 133
35 | Cc1cc(N2C=C3C(c4ccccc4)=C(OCc4ncn(C)n4)NN3C=N2)no1 | 194 to 196
36 | CC(C)(C)c1ccc2c(c1)-c1c(c(C(=O)C(C#N)C(=O)NCc3ccccc3)nn1-c1ccccc1)CO2 (stereo not drawn) | 281 to 284
37 | NC(=S)c1cccc(-c2cccc(C(N)=S)c2)c1 | 188 to 190
38 | CC(=O)OC1NC(=O)C1C(C)O[Si](C)(C)C(C)(C)C(C)C (stereo not drawn) | 80 to 81
39 | O=c1ccoc(CO)c1O | 154 to 156
40 | CC(=Cc1c(Cl)cccc1Cl)[N+](=O)[O-] | 49 to 50
41 | CCOC(=O)NNC(=O)NCCCCl | 105 to 106
42 | COP(=S)(OC)Oc1cc(-c2ccccc2)sc1C#N | 95
43 | COc1ccc(Cl)cc1C(=O)Nc1ccc(CCC(=O)O)cc1 | 188 to 190
44 | CCOc1ccccc1C(O)c1cc(Cl)ccc1N (stereo not drawn) | 80 to 81
45 | COc1ccc(N=C(NC(=S)NCCO)c2ccccc2)cc1 | 141 to 142
46 | FC(F)(F)CN1CCN=C(c2ccccc2)c2cc(Cl)ccc21 | 164 to 165
47 | CC1CCCC(Cc2c[nH]c3c(=O)[nH]c(N)nc23)C1 (stereo not drawn) | 282
48 | Cc1c(C(=O)OCc2ccccc2)sc(NC(=O)C(F)(F)F)c1C(=O)OC(C)(C)C | 136 to 138
49 | O=C(Nc1ccncn1)C(CC1CCCC1)c1cccc(C(F)(F)F)c1 (stereo not drawn) | 113 to 115
50 | CC(C)(C)OC(=O)NN(C(=O)c1ccccc1)C(C)(C)C | 167 to 170

Row | Structure (SMILES) | melting point [°C]
51 | CCOCC(=NO)C(C)(C)NCCCNC(C)(C)C(Cn1ccnc1[N+](=O)[O-])=NO | 122 to 123
52 | CCN(C=O)c1ccccc1C(=O)COC(=O)c1ccccc1 | 78 to 80
53 | Cc1cc(COc2ccc(F)c(C(N)=O)c2F)ccn1 | 185 to 186
54 | COc1cccc(-c2c3c(cc4ccc(O)cc24)-c2ccc(O)cc2CO3)c1 | 220 to 223
55 | CCCCCCCCCCCCCCCCOc1ccc(OCC(=O)Nc2ccccc2CO)cc1 | 128 to 131
56 | Cn1ncc(/C=C/C(=O)Nc2ccc(Cc3ccccn3)cc2)c1-c1ccc(F)cc1 | 215 to 216
57 | CC(=O)Oc1c(C)c(C)c2c(c1C)CCC(C)(COc1ccc(N)cc1)O2 (stereo not drawn) | 138 to 140
58 | Sc1nnc(-c2cccnc2)o1 | 237
59 | COc1ccc(CN2CC(COC(c3ccccc3)(c3ccccc3)c3ccccc3)CC2=O)cc1 (stereo not drawn) | 171 to 173
60 | COC1=C(OC)C(=O)C2=C(CC(CCCCCCCC(N)=O)(C(N)=O)C2)C1=O | 140 to 143
61 | C[C@H](Cn1ccnc1)NC(=O)c1c[nH]c2ncc(-c3nn(C)c4cc(Cl)ccc34)nc12 | 276 to 279
62 | CCCCCCCCCCCCCCOc1ccc(OCc2ccccc2)c(C(=O)OC)c1 | 43 to 46
63 | COC(=O)NC12CC=CCC1CSc1ccccc12 (stereo not drawn) | 150 to 152
64 | CCC(CC)Nc1c([N+](=O)[O-])cc(C)c(Cl)c1[N+](=O)[O-] | 61 to 62.5
65 | Nc1ccc2c(c1)COc1cc(Nc3ccc(F)cc3F)ccc1C2=O | 184 to 193
66 | N#Cc1ncn2c1[C@@H]1CCCN1C(=O)c1cc(F)ccc1-2 | 254 to 256
67 | CC1OC(N2CC(C)(I)C(=O)NC2=O)CC1O[Si](c1ccccc1)(c1ccccc1)C(C)(C)C (stereo not drawn) | 142
68 | CCC=C(c1ccccc1N1CCCC(C)(C)C1)C(C(N)=O)c1ccc(C(=O)OCC)cc1 (stereo not drawn) | 113 to 116
69 | COc1ccc(-c2cc(-c3ccccc3C(=O)O)no2)cc1 | 182 to 185
70 | COc1cc(N2[C@H](C)C[C@](C)(O)[C@@H]2C)ccc1C#N | 121 to 123
71 | COc1ccccc1C1C(C(=O)c2ccc(C)cc2)=C(O)C(=O)N1c1ccc(C)nn1 (stereo not drawn) | 211 to 213
72 | Nc1cc(Br)cnc1CCCCNc1nccc(=O)[nH]1 | 130 to 135
73 | Oc1cccc(CC2c3ccccc3CCc3ccccc32)c1 | 76.6
74 | CCCOc1cccc(C=C(C=O)C(C=O)=Cc2cccc(OCCC)c2)c1 | 93 to 94
75 | CCOC(=O)C(Cl)(Cl)CCCCCCCCCCCCSc1ccc(NC(=O)c2ccc(Cl)cc2)cc1 | 130 to 131

Row | Structure (SMILES) | melting point [°C]
76 | CCCCCCCCCCCCCCCCCCOc1ccc(OCCCOc2ccc(OCc3ccccc3)cc2)c(C(=O)N(CC(=O)O)CC(=O)O)c1 | 70 to 74
77 | COc1cc(C(=O)N2CCN(c3cccc(C)c3Cl)CC2)cc(OC)c1OC | 156 to 159
78 | Nc1ccnc2c(F)cccc12 | 184 to 186
79 | CN1CCN2c3ccccc3Cn3c(c(CO)c4ccccc43)C2C1 (stereo not drawn) | 184 to 189
80 | CC(=O)NNCC1CC2c3cccc4c3c(cn4C)CC2N(C)C1 (stereo not drawn) | 190 to 192
81 | COSN=C1C(=O)N(C)C(=O)N1c1ccccc1F | 124 to 127
82 | NCCc1ccc(C(N)=O)s1 | 134 to 136
83 | Cc1cc(=S)c2c(O)cc(O)cc2o1 | 244 to 246
84 | O=C(Cc1ccc(O)cc1)Nc1c(-c2cc(Cl)ccc2O)c2cc(C(F)(F)F)ccc2[nH]c1=O | 218 to 221
85 | CCOC(=O)C(=CNc1ccc(Br)cc1)C(=O)OCC | 100 to 102
86 | CN(C)C(=O)C=Cc1ccc(SC2Cc3cc(O)ccc3C3CCC4(C)C(O)CCC4C23)cc1 (stereo not drawn) | 152 to 155
87 | Fc1ccc(-c2nc(S)ncc2CCN2CCC(=Cc3ccccc3F)CC2)cc1 | 157 to 158
88 | CCOc1cc(C(CC(C)=O)N2C(=O)c3cccc(NC(C)=O)c3C2=O)ccc1OC (stereo not drawn) | 128 to 129
89 | COC(OC)C(=O)NCc1ccc(C)cc1 | 45.8
90 | CCOC(=O)c1ccccc1N(CC(=O)N(C)c1ccccc1)C(=O)CNC(=O)Nc1cccc(C)c1 | 201
91 | CCc1nc2c(C)nc(C)cc2n1-c1ccc(CCNC(=O)NS(=O)(=O)c2ccc(C)cc2)cc1 | 143
92 | CC(C)(C)OC(=O)NCCC(=O)NCCC(=O)OCc1ccccc1 | 84 to 85
93 | CCC1(C)CC(S(=O)(=O)Cc2c(F)cccc2F)=NO1 (stereo not drawn) | 64 to 65
94 | Cn1cc(C(=O)NC2CCCNC(=O)C2)nn1 (stereo not drawn) | 259 to 260
95 | CCCC(=O)c1cnc2c(CO)cccc2c1Nc1ccc(F)cc1C | 168 to 170
96 | C=CC12CCc3cc(O)ccc3C1CCC1(C)C(=O)CCC12 (stereo not drawn) | 239 to 242
97 | CC1(COc2ccc(N3CCN(c4ccc(C(F)(F)F)cc4)CC3)cc2)Cn2cc([N+](=O)[O-])nc2O1 (stereo not drawn) | 231 to 233
98 | CCCN(CCC)C(=O)Cc1ccc(O)c([N+](=O)[O-])c1 | 55 to 57
